Measurements published in patent US9925179B2, “Combination therapy for mental disorders” (priority 2014, dated 2018).
Several values for one entry are separate records, joined by “and”; a condition that tells them apart may be missing. Identical values can stand only once.

Key:
CRP = assay: Plasma CRP by ELISA in 12-week add-on trial; format: in vivo, human; conditions: for Within group change (baseline minus endpoint) CRP, Mean ± SD: BP-II patients, plasma, add-on to valproic acid, 12-week follow-up; for CRP, difference versus placebo, B (standardized coefficient): GEE interaction term, placebo as reference, controlling for age, gender, treatment duration, HDRS and YMRS
BP-II patients [1] = assay: Symptom severity (HDRS, YMRS) in 12-week randomized double-blind placebo-controlled add-on trial; format: in vivo, human; conditions: for Within group change (baseline minus endpoint) HDRS, Mean ± SD / Within group change (baseline minus endpoint) YMRS, Mean ± SD: BP-II patients, add-on to valproic acid, 12-week follow-up; for HDRS, difference versus placebo, B (standardized coefficient) / YMRS, difference versus placebo, B (standardized coefficient): GEE, treatment group x treatment duration interaction, placebo as reference, controlling for age, gender, treatment duration
Excerpt: (§1) 250˜300 male and female BP-II patients (18˜65 years old) were recruited, from the Department of Psychiatry at National Cheng Kung University Hospital and Tri-Service General Hospital into a 12-week treatment. The research protocol was examined for approval by the Institutional Review Board for the Protection of Human Subjects at National Cheng Kung University Hospital and Tri-Service General Hospital. All participants were given a complete description of the study and were asked to sign an informed consent before the study began. Patients who had major, mental illnesses other than BP-II and who had taken memantine or DM within 1 week before the first dose of the double-blind medication were excluded. The Chinese Version of Modified Schedule of Affective Disorder and Schizophrenia-Life Time (SADS-L) will be conducted for confirmation of the diagnosis. […] After each patient had been diagnosed based on DSM-IV criteria by a senior psychiatrist and confirmed by a clinical psychologist using a structured interview, SADS-L, the severity of each patient's clinical symptoms was assessed using the 17-item Hamilton Rating Scale for Depression (HRSD) and the Young Mania Rating Scale (YMRS). All the patients at Screen who score 18 on the HRSD or 14 on the YMRS were recruited. Eligible patients were randomly assigned into four treatment groups (n=40-45 for each group) in a double-blind manner and all groups matched in demographic characteristics, symptom severity, while they received open-label valproic acid (VPA) treatment (500 mg and 1000 mg daily [[…] in plasma]): 1) DM (30 mg/day), 2) memantine (5 mg/day), 3) combination of DM and memantine (30 mg/day DM and 5 mg/day memantine), and 4) placebo respectively for 12 weeks. Patients were randomized into 4 groups through a computer-generated randomization table to receive placebo or any of active treatments in a 1:1:1:1 ratio. The patients with side-effect intolerance or clinical worsening were withdrawn earlier.
Efficacy will be assessed by the YMRS, HDRS and Side-Effects.
Clinical ratings were performed by research psychiatric professionals who were well-trained and experienced in the rating scales. All assessments were blind to treatment assignment and completed at baseline and at the end of week 1, 2, 4, 8 and 12. Routine laboratory tests, including CBC and biochemistry were checked at baseline and the end of week 12.
(2) Young Mania Rating Scale (YMRS) and 17-item Hamilton Depression Rating Scale (HDRS)
Those clinically suspected of having a mood disorder were invited to be interviewed with the Chinese version SADS-L and diagnosed as having BP-II. The severity of current symptoms was assessed by using the YMRS and HDRS. The diagnosis of a mood disorder was made according to DSM-IV criteria, except for BP-II, for which we used a 2-day instead of a 4-day duration for hypomania.
(§2) The intent to-treat (ITT) analysis set included all randomized patients who received at least one dose of study drug, and had one baseline assessment and at least one after baseline. All the outcome variables were analyzed in the ITT set, including HDRS, YMRS, cytokine levels, plasma BDNF levels and metabolic parameters; missing data was filled in using the last observation carried forward (LOCF) method.
(§3) The overall within-group changes of each outcome over the 12 weeks were analyzed by paired sample t-test. To compare the difference in outcomes of add-on medication (DM30, MM5, and DM30+MM5) versus placebo, generalized estimating equation (GEE) was adopted. A total of 10 models ran with each outcome as a dependent variable. In each model, add-on medication received (DM30, MM5, and DM30+MM5 vs. controls), treatment duration, treatment received X treatment duration, gender, and age were included as independent variables. The covariance structure employed was autoregressive (AR(1)) model. The placebo group was used as reference group. […]

[2] = Metabolic profiles (cholesterol, HDL-C, LDL-C, triglyceride, glucose) in 12-week add-on trial; format: in vivo, human; conditions: for Within group change (baseline minus endpoint) Glucose, Mean ± SD / Within group change (baseline minus endpoint) HDL-C, Mean ± SD / Within group change (baseline minus endpoint) LDL-C, Mean ± SD / Within group change (baseline minus endpoint) Total cholesterol, Mean ± SD / Within group change (baseline minus endpoint) Triglyceride, Mean ± SD: BP-II patients, add-on to valproic acid, 12-week follow-up; for Glucose, difference versus placebo, B (standardized coefficient) / HDL-C, difference versus placebo, B (standardized coefficient) / LDL-C, difference versus placebo, B (standardized coefficient) / Total Cholesterol, difference versus placebo, B (standardized coefficient) / Triglyceride, difference versus placebo, B (standardized coefficient): GEE interaction term, placebo as reference, controlling for age, gender, treatment duration, HDRS and YMRS
Excerpt: as §1
(§4) Symptom severity, immunological parameters (plasma tumor necrosis factor α (TNF-α) and C-reactive protein (CRP)) and plasma brain derived neurotrophic factor (BDNF) were examined regularly. Metabolic profiles (cholesterol, triglyceride, HbA1C, fasting serum glucose, body mass index [BMI]) were measured at baseline and 2, 8, and 12 weeks. Concomitant benzodiazepine medication (lorazepam <8 mg) was used for nighttime sedation, and to treat agitation and insomnia during the study. Up to 20 mg/daily of fluoxetine was permitted for associated depressive symptoms.
as §2
as §3, with “group. The interaction term of treatment received X treatment duration was regarded as effect of add-on DM30, MM5, and DM30+MM5. To analyze correlations between cytokines, BDNF and metabolic profiles, GEE analysis was used as well.” for “group.”

[3] = Example 2: 4-week clinical trial of dextromethorphan added on to depakine, cholesterol and LDL; format: in vivo, human; conditions: 30 mg/day added on to depakine
Method: This example was a clinical trial for the treatment of bipolar II disorder using 30 mg/day of dextromethorphan (off label use) adding on to depakine (plasma level […]). 44 patients with bipolar II disorder were recruited, and change of cholesterol was monitored only over 4 weeks.

TNF-α = assay: Plasma TNF-α by ELISA in 12-week add-on trial; format: in vivo, human; conditions: for Within group change (baseline minus endpoint) TNF-α, Mean ± SD: BP-II patients, plasma, add-on to valproic acid, 12-week follow-up; for TNF-α, difference versus placebo, B (standardized coefficient): GEE interaction term, placebo as reference, controlling for age, gender, treatment duration, HDRS and YMRS
Excerpt: as §1
Serum levels of DM, memantine, plasma BDNF, and cytokines were measured. […] Plasma BDNF, CRP, TNF-α, were measured at baseline, 1, 2, 4, 8 and 12 weeks and quantified using the enzyme-linked immunosorbent assays (ELISAs). Cytokine levels were quantified using an antibody pair assay system (Flexia; BioSource Intl., Camarillo, Calif.). […]
Symptom severity, immunological parameters (plasma tumor necrosis factor α (TNF-α) and C-reactive protein (CRP)) and plasma brain derived neurotrophic factor (BDNF) were examined regularly. Metabolic profiles (cholesterol, triglyceride, HbA1C, fasting serum glucose, body mass index [BMI]) were measured at baseline and 2, 8, and 12 weeks. […]
(§5) The overall within-group changes of each outcome over the 12 weeks were analyzed by paired sample t-test. […]

[4] = cited from earlier work
BDNF = assay: Plasma BDNF by ELISA in 12-week add-on trial; format: in vivo, human; conditions: for Within group change (baseline minus endpoint) BDNF, Mean ± SD: BP-II patients, plasma, add-on to valproic acid, 12-week follow-up; for BDNF, difference versus placebo, B (standardized coefficient): GEE interaction term, placebo as reference, controlling for age, gender, treatment duration, HDRS and YMRS
Excerpt: as §1
Serum levels of DM, memantine, plasma BDNF, and cytokines were measured. […] of whole blood was drawn and collected from the antecubital vein. Plasma were isolated from the whole blood after the 3000 g centrifugation at 4° C. for 15 min and stored at −80° C. immediately. Plasma BDNF, CRP, TNF-α, were measured at baseline, 1, 2, 4, 8 and 12 weeks and quantified using the enzyme-linked immunosorbent assays (ELISAs). Cytokine levels were quantified using an antibody pair assay system (Flexia; BioSource Intl., Camarillo, Calif.). Sample processing and data analysis were done according to the manufacturer's instructions. The low limit sensitivity was 0.126 pg/ml, 0.057 pg/ml, and 20 pg/ml for TNF-α, IL-1β, and BDNF respectively. Finally, HPLC with UV detector and therapeutic drug monitoring (TDM) was used to measure the plasma DM and VPA level respectively.
as §4, with “Up to 20 mg/daily of fluoxetine was permitted for associated depressive symptoms.” left out
as §5

[5] = system: opioid addictive behavior; conditions: rat, 0.2 mg/kg (1/100 dosage); cited from earlier work
BP-II patients [6] = assay: Side effects / discontinuation in 12-week add-on trial; format: in vivo, human; conditions: 12-week trial, n=66 in group
Excerpt: 250˜300 male and female BP-II patients (18˜65 years old) were recruited, from the Department of Psychiatry at National Cheng Kung University Hospital and Tri-Service General Hospital into a 12-week treatment. The research protocol was examined for approval by the Institutional Review Board for the Protection of Human Subjects at National Cheng Kung University Hospital and Tri-Service General Hospital. All participants were given a complete description of the study and were asked to sign an informed consent before the study began. Patients who had major, mental illnesses other than BP-II and who had taken memantine or DM within 1 week before the first dose of the double-blind medication were excluded. […] After each patient had been diagnosed based on DSM-IV criteria by a senior psychiatrist and confirmed by a clinical psychologist using a structured interview, SADS-L, the severity of each patient's clinical symptoms was assessed using the 17-item Hamilton Rating Scale for Depression (HRSD) and the Young Mania Rating Scale (YMRS). […]
The severity of side effects was evaluated by using the Chinese version of Side-Effects Checklist which derived from Psychiatric Rating and Diagnostic Instruments (TRIMS, 1972) and included 7 categories as follows: 1) Mental Status; 2) Genito-Urinary; 3) Cardiovascular; 4) Head-Neck; 5) Extremities; 6) Skin; 7) Gastrointestinal. […]

Structure (SMILES) | Within group change (baseline minus endpoint) CRP, Mean ± SD (CRP) [ng/mL] | CRP, difference versus placebo, B (standardized coefficient) (CRP) | Within group change (baseline minus endpoint) HDRS, Mean ± SD (BP-II patients [1]) | Within group change (baseline minus endpoint) YMRS, Mean ± SD (BP-II patients [1]) | HDRS, difference versus placebo, B (standardized coefficient) (BP-II patients [1]) | YMRS, difference versus placebo, B (standardized coefficient) (BP-II patients [1]) | Within group change (baseline minus endpoint) Glucose, Mean ± SD [2] [mg/dL] | Within group change (baseline minus endpoint) HDL-C, Mean ± SD [2] [mg/dL] | Within group change (baseline minus endpoint) LDL-C, Mean ± SD [2] [mg/dL] | Within group change (baseline minus endpoint) Total cholesterol, Mean ± SD [2] [mg/dL] | Within group change (baseline minus endpoint) Triglyceride, Mean ± SD [2] [mg/dL] | Glucose, difference versus placebo, B (standardized coefficient) [2] | HDL-C, difference versus placebo, B (standardized coefficient) [2] | LDL-C, difference versus placebo, B (standardized coefficient) [2] | Total Cholesterol, difference versus placebo, B (standardized coefficient) [2] | Triglyceride, difference versus placebo, B (standardized coefficient) [2] | Within group change (baseline minus endpoint) TNF-α, Mean ± SD (TNF-α) [pg/mL] | TNF-α, difference versus placebo, B (standardized coefficient) (TNF-α) | Within group change (baseline minus endpoint) BDNF, Mean ± SD (BDNF) [ng/mL] | BDNF, difference versus placebo, B (standardized coefficient) (BDNF) | further results
COc1ccc2c(c1)[C@]13CCCC[C@@H]1[C@H](C2)N(C)CC3 [DM30, dextromethorphan] | 10.9 ± 1290.3 | 0.05 | 6.4 ± 4.7 | 4.7 ± 3.4 | −1.38 | −1.00 | 9.0 ± 38.1 | 1.6 ± 10.2 | -0.9 ± 23.1 | -0.1 ± 28.7 | -11.6 ± 168.4 | −5.33 | 0.79 | 8.80 | 6.95 | 28.08 | 0.1 ± 2.5 | −0.04 | -2.3 ± 8.3 | 2.94 | cholesterol and LDL in human, in words ([3]; 4 weeks): decreased; low density lipid protein (LDL), first value (before treatment) ([3]; 44 bipolar II patients): 127.70 ± 34.24 mg/dL; total cholesterol, first value (before treatment) ([3]; 44 bipolar II patients): 194.70 ± 39.49 mg/dL; total cholesterol over 4-week of treatment, second value ([3]; 44 bipolar II patients, P=0.09): 186.16 ± 37.95 mg/dL; low density lipid protein (LDL) over 4-week of treatment, second value ([3]; 44 bipolar II patients, P=0.13): 120.84 ± 34.013 mg/dL; plasma levels of DM ([4]; BP patients, U.S. Pat. No. 8,785,472): 5 to 100 ng/mL; plasma DM concentrations ([4]; patients taking 30-60 mg/70 kg of DM, listed as DM): 10-30 ng/ml and 28-84 nM; BDNF level, within group change, in words (BDNF; after 12 weeks of treatment): Significant improved
CC12CC3CC(C)(C1)CC(N)(C3)C2 [MM5, memantine] | -12.6 ± 1269.4 | 0.09 | 6.3 ± 4.9 | 4.6 ± 3.9 | −1.33 | −0.98 | -3.3 ± 22.6 | 2.4 ± 8.7 | 2.6 ± 22.0 | 0.5 ± 24.5 | -10.7 ± 38.7 | 7.63 | −0.07 | 4.45 | 3.14 | 8.81 | 0.3 ± 1.8 | −0.15 | 0.3 ± 7.6 | 0.02 | opioid addictive behavior by conditioned place preference, in words [5]: effective; patients discontinuing with poor tolerance to a side effect (dizziness) (BP-II patients [6]): One
